Measurements reported in patent publication US10375956B2, “Herbicidally active 2-(substituted-phenyl)-cyclopentane-1,3-dione compounds and derivatives thereof” (Syngenta Limited, priority 2013, dated 2019).
Read-outs that look alike come from different tables or passages of the source.

Key:
Assay type in all cases: in vivo
[1] = tested on: Abutilon theophrasti (ABUTH); assay: Test 1 glasshouse assay, pre-emergence herbicidal activity; conditions: 312 h, visual evaluation after 13 days, read-out: Percentage phytotoxicity ABUTH
In short: (§1)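 Pots are sprayed pre-emergence, one day after sowing, with the technical active ingredient in an acetone/water mixture containing 0.5% Tween 20. After 13 days under controlled glasshouse conditions, damage is rated visually as percent phytotoxicity.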

[2] = tested on: Alopecurus myosuroides (ALOMY); assay: as above; conditions: 312 h, visual evaluation after 13 days, read-out: Percentage phytotoxicity ALOMY
In short: as §1

[3] = tested on: Amaranthus retroflexus (AMARE); assay: as above; conditions: 312 h, visual evaluation after 13 days, read-out: Percentage phytotoxicity AMARE
In short: as §1

[4] = tested on: Echinochloa crus-galli (ECHCG); assay: as above; conditions: 312 h, visual evaluation after 13 days, read-out: Percentage phytotoxicity ECHCG
In short: as §1

Setaria faberi (SETFA) [5] = assay: as above; conditions: 312 h, visual evaluation after 13 days, read-out: Percentage phytotoxicity SETFA
In short: as §1

[6] = tested on: Abutilon theophrasti (ABUTH); assay: Test 1 glasshouse assay, post-emergence herbicidal activity; conditions: 312 h, post-emergence (Example 1B Table 1), after 13 days, read-out: Percentage phytotoxicity ABUTH
In short: (§2)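 Plants sprayed post-emergence after 8 days' growth with active ingredient in acetone/water (50:50) plus 0.5% Tween 20; glasshouse at 24/16° C day/night, 14 h light, 65% humidity. Visual percentage phytotoxicity scored 13 days later (100% = total damage, 0% = none).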

[7] = tested on: Amaranthus retroflexus (AMARE); assay: as above; conditions: 312 h, post-emergence (Example 1B Table 1), after 13 days, read-out: Percentage phytotoxicity AMARE
In short: as §2

Setaria faberi (SETFA) [8] = assay: as above; conditions: 312 h, post-emergence (Example 1B Table 1), after 13 days, read-out: Percentage phytotoxicity SETFA
In short: as §2

[9] = tested on: Zea mays (ZEAMX, corn/maize); assay: as above; conditions: 312 h, post-emergence (Example 1B Table 1), after 13 days, read-out: Percentage phytotoxicity ZEAMX
In short: as §2

[10] = tested on: Alopecurus myosuroides (ALOMY); assay: as above; conditions: 312 h, after 13 days, read-out: Percentage phytotoxicity ALOMY
In short: (§3)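 Plants sprayed 8 days after sowing with active ingredient in acetone/water (50:50) containing 0.5% Tween 20, grown in glasshouse at 24/16°C day/night, 14 h light, 65% humidity. Phytotoxicity scored visually after 13 days as percentage damage (100% = total damage; 0% = none).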

[11] = tested on: Echinochloa crus-galli (ECHCG); assay: as above; conditions: 312 h, after 13 days, read-out: Percentage phytotoxicity ECHCG
In short: as §3

[12] = tested on: Triticum aestivum (TRZAW, winter wheat); assay: Test 2 glasshouse assay (IF50 formulation, X-77), post-emergence herbicidal activity; conditions: 360 h, 15 DAA, visual score, read-out: Post-emergence herbicidal activity (percentage phytotoxicity) TRZAW; for plant injury at 125 g/ha: application rate 125 g/ha; for plant injury at 30 g/ha: application rate 30 g/ha
In short: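 Plants grown ~12 days (range 10-13) in glasshouse (cool species 20/16° C., warm 24/18° C. day/night; 16 h light; 65% humidity), then sprayed post-emergence with IF50 formulation in aqueous 0.2% v/v X-77. Visual percentage phytotoxicity scored 15 days after application (100% = total damage, 0% = none).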

[13] = post-emergence (Example 1B Table 1)
[14] = post-emergence (Example 1B Table 2)

Question: How did the pest or weed control at 250 g/ha [1] turn out when `C#CCC1CC(=O)C(c2c(F)cc(-c3ccc(Cl)cc3)cc2OC)C1=O` (stereo not drawn) [Compound A14] was run?
Answer: 20%

Question: And the pest or weed control at 250 g/ha [2]?
Answer: 100%

Question: And the pest or weed control at 250 g/ha [3]?
Answer: 90%

Question: What about the pest or weed control at 250 g/ha [4] of the same compound?
Answer: 100%

Question: And the pest or weed control at 250 g/ha (Setaria faberi (SETFA) [5])?
Answer: 100%

Question: What about the pest or weed control at 62.5 g/ha ([6]; 62.5 g/ha) of the same compound?
Answer: 0%

Question: What about the pest or weed control at 250 g/ha [6] of the same compound?
Answer: 0%

Question: What about the pest or weed control at 62.5 g/ha ([7]; 62.5 g/ha) of the same compound?
Answer: 50%

Question: What about the pest or weed control at 250 g/ha [7] of the same compound?
Answer: 60%

Question: And the pest or weed control at 62.5 g/ha (Setaria faberi (SETFA) [8]; 62.5 g/ha)?
Answer: 90%

Question: And the pest or weed control at 250 g/ha (Setaria faberi (SETFA) [8])?
Answer: 100%

Question: And the pest or weed control at 62.5 g/ha ([9]; 62.5 g/ha)?
Answer: 100%

Question: And the pest or weed control at 250 g/ha [9]?
Answer: 100%

Question: And the pest or weed control at 62.5 g/ha [10, 13]?
Answer: 70%

Question: What about the pest or weed control at 250 g/ha [10, 13] of the same compound?
Answer: 90%

Question: What about the pest or weed control at 250 g/ha [10, 14] of the same compound?
Answer: 90%

Question: And the pest or weed control at 62.5 g/ha [11, 13]?
Answer: 100%

Question: And the pest or weed control at 250 g/ha [11, 13]?
Answer: 100%

Question: And the pest or weed control at 250 g/ha [11, 14]?
Answer: 100%

Question: What about the plant injury at 125 g/ha [12] of the same compound?
Answer: 40%

Question: For `C#CCC1CC(=O)C(c2c(F)cc(-c3ccc(Cl)cn3)cc2Cl)C1=O` (stereo not drawn) [Compound A8], which pest or weed control at 250 g/ha [1] is on record?
Answer: 0%

Question: What about the pest or weed control at 250 g/ha [2] of the same compound?
Answer: 90%

Question: What about the pest or weed control at 250 g/ha [3] of the same compound?
Answer: 90%

Question: And the pest or weed control at 250 g/ha [4]?
Answer: 100%

Question: What about the pest or weed control at 250 g/ha (Setaria faberi (SETFA) [5]) of the same compound?
Answer: 100%

Question: And the pest or weed control at 30 g/ha [6]?
Answer: 70%

Question: And the pest or weed control at 250 g/ha [6]?
Answer: 80%

Question: And the pest or weed control at 30 g/ha [7]?
Answer: 80%

Question: And the pest or weed control at 250 g/ha [7]?
Answer: 90%

Question: And the pest or weed control at 30 g/ha (Setaria faberi (SETFA) [8])?
Answer: 100%

Question: What about the pest or weed control at 250 g/ha (Setaria faberi (SETFA) [8]) of the same compound?
Answer: 100%

Question: And the pest or weed control at 30 g/ha [9]?
Answer: 100%

Question: And the pest or weed control at 250 g/ha [9]?
Answer: 100%

Question: And the pest or weed control at 30 g/ha [10, 13]?
Answer: 100%

Question: What about the pest or weed control at 250 g/ha [10, 13] of the same compound?
Answer: 100%

Question: What about the pest or weed control at 62.5 g/ha [10, 14] of the same compound?
Answer: 80%

Question: And the pest or weed control at 250 g/ha [10, 14]?
Answer: 100%

Question: And the pest or weed control at 30 g/ha [11, 13]?
Answer: 100%

Question: What about the pest or weed control at 250 g/ha [11, 13] of the same compound?
Answer: 100%

Question: And the pest or weed control at 62.5 g/ha [11, 14]?
Answer: 100%

Question: What about the pest or weed control at 250 g/ha [11, 14] of the same compound?
Answer: 100%

Question: What about the plant injury at 30 g/ha [12] of the same compound?
Answer: 30%

Question: And the plant injury at 250 g/ha ([12]; application rate 250 g/ha)?
Answer: 90%

Question: Which pest or weed control at 250 g/ha [1] does the source give for `C#CCC1CC(=O)C(c2c(Cl)cc(-c3ccc(F)cc3F)cc2OC)C1=O` (stereo not drawn) [Compound A12] here?
Answer: 80%

Question: What about the pest or weed control at 250 g/ha [2] of the same compound?
Answer: 90%

Question: And the pest or weed control at 250 g/ha [3]?
Answer: 100%

Question: What about the pest or weed control at 250 g/ha [4] of the same compound?
Answer: 100%

Question: And the pest or weed control at 250 g/ha (Setaria faberi (SETFA) [5])?
Answer: 100%

Question: And the pest or weed control at 30 g/ha [6]?
Answer: 50%

Question: What about the pest or weed control at 250 g/ha [6] of the same compound?
Answer: 80%

Question: And the pest or weed control at 30 g/ha [7]?
Answer: 30%

Question: And the pest or weed control at 250 g/ha [7]?
Answer: 80%

Question: What about the pest or weed control at 30 g/ha (Setaria faberi (SETFA) [8]) of the same compound?
Answer: 100%

Question: What about the pest or weed control at 250 g/ha (Setaria faberi (SETFA) [8]) of the same compound?
Answer: 100%

Question: And the pest or weed control at 30 g/ha [9]?
Answer: 100%

Question: What about the pest or weed control at 250 g/ha [9] of the same compound?
Answer: 100%

Question: What about the pest or weed control at 30 g/ha [10, 13] of the same compound?
Answer: 80%

Question: And the pest or weed control at 250 g/ha [10, 13]?
Answer: 100%

Question: And the pest or weed control at 62.5 g/ha [10, 14]?
Answer: 60%

Question: And the pest or weed control at 250 g/ha [10, 14]?
Answer: 100%

Question: What about the pest or weed control at 30 g/ha [11, 13] of the same compound?
Answer: 100%

Question: What about the pest or weed control at 250 g/ha [11, 13] of the same compound?
Answer: 100%

Question: And the pest or weed control at 62.5 g/ha [11, 14]?
Answer: 100%

Question: What about the pest or weed control at 250 g/ha [11, 14] of the same compound?
Answer: 100%

Question: What about the plant injury at 30 g/ha [12] of the same compound?
Answer: 40%

Question: And the plant injury at 125 g/ha [12]?
Answer: 80%
